Experimental findings from patent US7273856B2, “Linear basic compounds having NK-2 antagonist activity and formulations thereof” (Menarini Ricerche S.P.A., priority 2001, dated 2007) are described below.

Where a name gives a salt, the structure may show the parent alone.

In this assay the target is T1, human NK-2 receptor (Homo sapiens, UniProt P21452).
T1 construct: expressed in transfected cells; host or cells: CHO (Chinese hamster ovary) cells, membranes
T1 sequence (P21452 1-398): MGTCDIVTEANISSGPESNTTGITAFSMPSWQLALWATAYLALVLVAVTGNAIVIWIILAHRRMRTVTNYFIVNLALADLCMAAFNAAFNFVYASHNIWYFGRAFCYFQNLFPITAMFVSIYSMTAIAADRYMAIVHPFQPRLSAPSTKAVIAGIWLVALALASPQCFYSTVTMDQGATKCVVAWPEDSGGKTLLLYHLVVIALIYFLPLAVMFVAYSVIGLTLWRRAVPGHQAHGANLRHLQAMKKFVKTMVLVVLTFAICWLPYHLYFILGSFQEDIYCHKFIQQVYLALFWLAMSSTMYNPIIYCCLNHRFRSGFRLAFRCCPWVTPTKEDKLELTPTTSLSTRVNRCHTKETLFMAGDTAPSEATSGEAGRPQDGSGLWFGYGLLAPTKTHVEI
Put plainly: binding test, affinity for the human NK-2 receptor, competition with [125I]NKA on transfected CHO cell membranes. Conditions: CHO cell membranes transfected with NK-2 receptor of human ileum; [125I]NKA 100 pM; 30 min, 20° C. How it is done: The evaluation of the antagonist activity on NK-2 receptors has been assessed by binding and functional tests according to that already described in literature in relation to NK-2 antagonists.
The test substances have been tested within a concentration range from 0.01 nM to 10 nM. At the end of the incubation time (30 min, 20° C.) the samples have been filtered and radioactivity has been determined using a gamma-counter.
For `O=C(NC1(C(=O)N[C@H](Cc2ccccc2)C(=O)NCC2CCN(C3CCSCC3)CC2)CCCC1)c1cc2cc(Cl)ccc2o1` [Example 93, 5-Chloro-benzofuran-2-carboxylic acid [1-(2-phenyl-1(R)-{[1-(tetrahydro-thiopyran-4-yl)-piperidin-4-ylmethyl]-carbamoyl}-ethylcarbamoyl)cyclopentyl]-amide], the Ki is 0.0794 nM. Consider `Cc1ccc(C=CC(=O)NC2(C(=O)N[C@H](Cc3ccccc3)C(=O)N[C@H]3CC[C@@H](C(=O)N[C@H]4CCCC[C@@H]4N)C3)CCCC2)cc1.O=C(O)C(F)(F)F` [Example 5, N^γ{N^α[N^α[4-(methyl)cynnamoyl]-1-aminocyclopentan-1-carboxy]-D-phenylalanyl}-(1R,3S)-3-aminocyclopentane-1-carboxylic-acid-N-((1S,2S)-2-aminocyclohexyl)amide trifluoroacetate salt], for which the pKi was found to be 9.7. For `Cc1ccc2c(c1)cc(C(=O)NC1(C(=O)N[C@H](Cc3ccccc3)C(=O)NCCCN3CCOCC3)CCCC1)n2C` [Example 114, 1,5-Dimethyl-1H-indole-2-carboxylic acid {1-[1R-(3-morpholinyl-propylcarbamoyl)-2-phenyl-ethylcarbamoyl]-cyclopentyl}-amide], the Ki is 1.58 nM.

Take `Nc1ccc2cc(C(=O)NC3(C(=O)N[C@H](Cc4ccccc4)C(=O)NCCCN4CCOCC4)CCCC3)sc2c1` [Example 115, 6-Amino-benzo[b]thiophene-2-carboxylic acid {1-[1R-(3-morpholin-4-yl-propylcarbamoyl)-2-phenyl-ethylcarbamoyl]-cyclopentyl]-amide]: the Ki is 3.16 nM. The same measure, in the same setting: then `Cc1cc2oc(C(=O)NC3(C(=O)N[C@H](Cc4ccccc4)C(=O)NCC4CCN(CC5CCOCC5)CC4)CCCC3)c(C)c2cc1C` [Example 148, 3,5,6-Trimethyl-benzofuran-2-carboxylic acid [1-(2-phenyl-1-{[1R-(tetrahydro-pyran-4-ylmethyl)-piperidin-4-ylmethyl]-carbamoyl}-ethylcarbamoyl)-cyclopentyl]-amide], with 0.316 nM. Same read-out and setting: then `Cc1ccc(C=CC(=O)NC2(C(=O)NC(Cc3ccccc3)C(=O)NC3CCC(CN4CCOCC4)C3)CCc3ccccc32)cc1` (mixture of isomers) [Example 7, N^α[N^α(4(methyl)cinnamoyl)-(R,S)1-aminoindane-1-carboxy]-D-phenylalanine amide-N-[(1S,3R)-3-(morpholin-4-ylmethyl)cyclopentyl]], with 0.126 nM. Same read-out and setting: then `O=C(NC1(C(=O)N[C@H](Cc2ccccc2)C(=O)NCC2CCN(CC3COCOC3)CC2)CCCC1)c1cc2cc(Cl)ccc2o1` [Example 91, 5-Chloro-benzofuran-2-carboxylic acid (1-{1(R)-[(1-[1,3]dioxan-5-ylmethyl-piperidin-4-ylmethyl)-carbamoyl]-2-phenyl-ethylcarbamoyl}-cyclopentyl)-amide], with 1 nM. As for `CCN(CC)c1ccc2cc(C(=O)NC3(C(=O)N[C@H](Cc4ccccc4)C(=O)NCC4CCN(CC5CCOCC5)CC4)CCCC3)oc2c1` [Example 145, 6-Diethylamino-benzofuran-2-carboxylic acid [1-(2-phenyl-1-{[1R-(tetrahydro-pyran-4-ylmethyl)-piperidin-4-ylmethyl)-carbamoyl}-ethylcarbamoyl)-cyclopentyl]-amide], the inhibitory constant (Ki) was 0.501 nM. Same read-out and setting: then `CN1CCN(C[C@@H]2CC[C@H](NC(=O)[C@@H](Cc3ccccc3)NC(=O)C3(NC(=O)c4cc5ccccc5s4)CCCC3)C2)CC1` [Example 32], with 1.26 nM. `O=C(NC1(C(=O)N[C@H](Cc2ccccc2)C(=O)NCCCN2CCOCC2)CCCC1)c1cc2ccc(Cl)c(Cl)c2s1` [Example 116, 6,7-Dichloro-benzo[b]thiophene-2-carboxylic acid {1-[1R-(3-morpholin-4-yl-propylcarbamoyl)-2-phenyl-ethylcarbamoyl]-cyclopentyl}-amide] showed a Ki of 0.316 nM. This Ki lies about 4-fold lower than the previous one. `CCN1CCC(CNC(=O)[C@@H](Cc2ccccc2)NC(=O)C2(NC(=O)c3ccc4cc(Br)ccc4c3)CCCC2)CC1` [Example 76, 6-Bromo-naphthalene-2-carboxylic acid (1-{1(R)-[(1-ethyl-piperidin-4-ylmethyl)-carbamoyl]-2-phenyl-ethylcarbamoyl}-cyclopentyl)-amide] showed an inhibition constant Ki of 1 nM. Take `N[C@H]1CCCC[C@@H]1NC[C@@H]1CC[C@H](NC(=O)[C@@H](Cc2ccccc2)NC(=O)C2(NC(=O)c3cc4ccccc4s3)CCCC2)C1` [Example 38]: the negative-log Ki (pKi) is given as 9.5.

On to `CN(C)[C@H]1CCCC[C@@H]1NC(=O)[C@@H]1CC[C@H](NC(=O)[C@@H](Cc2ccccc2)NC(=O)C2(NC(=O)c3cc4ccccc4n3C)CCCC2)C1` [Example 13, N^γ{N^α[N^α((methyl)indol-2-ylcarboxy)-1-aminocyclopentan-1-carboxy]-D-phenylalanyl}-(1R,3S)-3-aminocyclopentane-1-carboxylic-acid-N-((1S,2S)-2-dimethylaminocyclohexyl)amide hydrochloride salt], for which affinity was put at a Ki of 1 nM.

As to `Cc1ccc(C[C@@H](NC(=O)C2(NC(=O)c3ccc(-c4ccccc4)cc3)CCCC2)C(=O)N[C@H]2CC[C@@H](C(=O)N[C@H]3CCCC[C@@H]3N)C2)cc1` [Example 16, N^γ{N^α[N^α(biphenyl-4-carboxy)-1-aminocyclopentan-1-carboxy]-R-3(4(methyl)phenyl)alanyl}-(1R,3S)-3-aminocyclopentane-1-carboxylic-acid-N-((1S,2S)-2-aminocyclohexyl) amide hydrochloride salt], the inhibition constant (Ki) is 0.501 nM. This Ki is about 2-fold lower than that of the molecule before. With `O=C(NC1(C(=O)N[C@H](Cc2ccccc2)C(=O)NCC2CCN(CC3CCOCC3)CC2)CCCC1)c1cc2cc(Br)ccc2o1` [Example 123, 5-Bromo-benzofuran-2-carboxylic acid [1-(2-phenyl-1R-{[1-(tetrahydro-pyran-4-ylmethyl)-piperidin-4-ylmethyl]-carbamoyl}-ethylcarbamoyl)cyclopentyl]-amide], affinity was put at a Ki of 0.1 nM. On the same count and under the same terms, then `O=C(NC1(C(=O)N[C@H](Cc2ccccc2)C(=O)NCC2CCN(CC3COCOC3)CC2)CCCC1)c1ccc2cc(Br)ccc2c1` [Example 89, 6-Bromo-naphthalene-2-carboxylic acid (1-{1(R)-[(1-[1,3]dioxan-5-ylmethyl-piperidin-4-ylmethyl)-carbamoyl]-2-phenyl-ethylcarbamoyl}-cyclopentyl)-amide], with 0.126 nM; and `N#CCN1CCN(C(=O)CCNC(=O)[C@@H](Cc2ccccc2)NC(=O)C2(NC(=O)c3cc4ccccc4s3)CCCC2)CC1` [Example 65, Benzo[b]thiophene-2-carboxylic acid (1-{1(R)-[3-(4-cyanomethyl-piperazin-1-yl)-3-oxo-propylcarbamoyl]-2-phenyl-ethylcarbamoyl}-cyclopentyl)-amide], with 1 nM. Still for that read-out and setting: in the case of `O=C(NC1(C(=O)N[C@H](Cc2ccccc2)C(=O)NCC2CCN(CC3CCOCC3)CC2)CCCC1)c1ccc2cc(I)ccc2c1` [Example 117, 6-Iodo-naphthalene-2-carboxylic acid (1-(2-phenyl-1R-{[1-(tetrahydro-pyran-4-ylmethyl)-piperidin-4-ylmethyl]-carbamoyl}-ethylcarbamoyl)-cyclopentyl]-amide] it was 0.0501 nM; in that of `O=C(NC1(C(=O)N[C@H](Cc2ccccc2)C(=O)NCCN2CCN(CC3CCOCC3)CC2)CCCC1)c1cc2ccccc2s1` [Example 101, Benzo[b]thiophene-2-carboxylic acid [1-(2-phenyl-1(R)-{2-[4-(tetrahydro-pyran-4-ylmethyl)-piperazin-1-yl]-ethylcarbamoyl}-ethylcarbamoyl)-cyclopentyl)-amide TFA salt], 1.26 nM; in that of `O=C(NC1(C(=O)N[C@H](Cc2ccccc2)C(=O)NCCCN2CCOCC2)CCCCC1)c1cc2ccc(Br)cc2s1` [Example 109, 6-Bromo-benzo[b]thiophene-2-carboxylic acid {1-[1R-(3-morpholin-4-yl-propylcarbamoyl)-2-phenyl-ethylcarbamoyl]-cyclohexyl}-amide], 0.1 nM. Still for that read-out and setting: then `O=C(NC1(C(=O)N[C@@H](CNCCC2CCN(C(=O)Cc3cccs3)CC2)Cc2ccccc2)CCCC1)c1cc2ccccc2s1` [Example 94, Benzo[b]thiophene-2-carboxylic acid [1-(1(R)benzyl-2-{2-[1-(thiophen-2-yl-acetyl)-piperidin-4-yl]-ethylamino}-ethylcarbamoyl)-cyclopentyl]-amide TFA salt], with 0.631 nM; and `CC(C)(C)c1cccc2cc(C(=O)NC3(C(=O)N[C@H](Cc4ccccc4)C(=O)NCC4CCN(CC5CCOCC5)CC4)CCCC3)oc12` [Example 124, 7-tert-Butyl-benzofuran-2-carboxylic acid [1-(2-phenyl-1R-{[1-(tetrahydro-pyran-4 ylmethyl)-piperidin-4-ylmethyl]-carbamoyl}-ethylcarbamoyl)-cyclopentyl]-amide], with 0.1 nM. `O=C(NC1(C(=O)N[C@H](Cc2ccccc2)C(=O)NCCC2CCN(C[C@@H]3CCCN3)CC2)CCCC1)c1ccc2cc(Br)ccc2c1` [Example 84, 6-Bromo-naphthalene-2-carboxylic acid (1-{2-phenyl-1(R)-[2-(1-pyrrolidin-2(S)-ylmethyl-piperidin-4-yl)ethylcarbamoyl]-ethylcarbamoyl}-cyclopentyl)amide TFA salt] had a Ki of 0.316 nM.
